Results reported in patent US20140148355A1, “COMPOSITIONS AND METHODS FOR ANALYSIS OF H3K4 METHYLATED CHROMATIN” (UNIVERSITY OF OSLO, priority 2011, published 2014).

Test system: H3K4 methylated chromatin
Assay: Chromatin pulldown (ChPD) with western blot detection
Format: binding
Details: antibodies against each of the three H3K4 methylation states; Arabidopsis seedling chromatin
From the text: FIG. 8 Chromatin pulldown (ChPD) using the ASHH2 CW. […] Modified histones were visualised by western blot using antibodies as indicated. Molecular size markers are shown to the right. (B) qPCR with primers for assumed ASHH2 target genes on DNA isolated from seedling chromatin pulled down with GST-CWASHH2. ChPD with GST alone was used as a negative control. Data are shown as percent of input. The Ta3 retrotransposon was used as reference. Standard deviations are shown. (C) ChIP using antibodies against H3K4me1, H3K4me3 and H3K36me3 and primers for the same genes as in (B). Data are shown relative to Ta3. (D) ChPD from wt and ashh2 mutant seedlings as in (A) using antibodies as indicated. ChPD with GST alone was used as a negative control and histone H3 as reference.
Chromatin pull-down (ChPD) was performed using crude chromatin in ChIP dilution buffer (1.1% Triton X-100, 1.2 mM EDTA, 16.7 mM Tris-HCL pH 8, 167 mM NaCl) prepared as for ChIP (Gendrel et al., 2005) incubated with 8 μg GST-CW fusion protein and control proteins (only GST alone, or together with GST-CW-W874A and GST-WIYLD) over night. For western blotting, the pulled down chromatin was washed three times in ChIP dilution buffer, run on a 15% SDS-PAGE and blotted onto a PVDF membrane. […]

WIYLD domain of SUVR4: WIYLD domain of the Arabidopsis SET-domain protein SUVR4, GST fusion, negative control [reference compound]
pull down of H3K4 methylated chromatin (western blot signal): did not pull down
